Patent US7109193B2, “Tricyclic diazepines tocolytic oxytocin receptor antagonists” (Wyeth, priority 2001, dated 2006)

The compounds below were run against T1, human vasopressin V1a receptor subtype (Homo sapiens, UniProt P37288) (assay: Vasopressin binding in Chinese Hamster Ovary cell membranes expressing human vasopressin V1a subtype receptors). Details: 100 nM, CHO cell membranes, [3H]Manning ligand, values without parentheses.
T1 construct: host or cells: CHO cells (pZeoSV vector for the Thibonnier line)
T1 sequence (P37288 whole entry): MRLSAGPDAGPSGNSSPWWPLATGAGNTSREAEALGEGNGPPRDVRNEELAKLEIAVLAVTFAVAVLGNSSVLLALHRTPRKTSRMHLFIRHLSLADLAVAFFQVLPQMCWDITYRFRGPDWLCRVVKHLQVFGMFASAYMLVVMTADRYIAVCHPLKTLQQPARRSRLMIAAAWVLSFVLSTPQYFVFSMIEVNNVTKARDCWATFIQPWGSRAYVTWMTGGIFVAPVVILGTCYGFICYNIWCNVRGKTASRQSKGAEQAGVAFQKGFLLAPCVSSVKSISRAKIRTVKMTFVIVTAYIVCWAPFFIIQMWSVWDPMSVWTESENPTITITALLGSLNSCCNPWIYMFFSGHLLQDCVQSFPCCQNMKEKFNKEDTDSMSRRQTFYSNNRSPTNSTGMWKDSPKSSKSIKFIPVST
Method in brief: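 Membranes from CHO cells expressing human V1a receptor were incubated with [3H]Manning ligand (added as 20 μL of 8 nM) in pH 7.4 Tris buffer with MgCl2, BSA and protease inhibitors, 60 min at room temperature. Bound radioactivity was counted after filtration; values are percent inhibition at a stated concentration or IC50.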

SMILES | inhibition at 0.1 µM [%]
COc1cc(C(=O)N2Cc3ccc(C(=O)N4CCN(CCN5CCOCC5)CC4)n3Cc3ccccc32)ccc1-c1ccccc1C [Example 210, {10-[(2-Methoxy-2′-methyl[1,1′-biphenyl]-4-yl)carbonyl]-10,11-dihydro-5H-pyrrolo[2,1-c][1,4]benzodiazepin-3-yl}{4-[2-(4-morpholinyl)ethyl]-1-piperazinyl}methanone] | 39
COc1cccc(-c2ccc(C(=O)N3Cc4ccc(C(=O)N5CCN(CCN6CCOCC6)CC5)n4Cc4ccccc43)cc2OC)c1 [Example 211, {10-[(2,3′-Dimethoxy[1,1′-biphenyl]-4-yl)carbonyl]-10,11-dihydro-5H-pyrrolo[2,1-c][1,4]benzodiazepin-3-yl}{4-[2-(4-morpholinyl)ethyl]-1-piperazinyl}methanone] | 45
COc1cc(C(=O)N2Cc3ccc(C(=O)N4CCN(CCN5CCOCC5)CC4)n3Cc3ccccc32)ccc1-c1cccc2ccccc12 [Example 213, {10-[3-Methoxy-4-(1-naphthyl)benzoyl]-10,11-dihydro-5H-pyrrolo[2,1-c][1,4]benzodiazepin-3-yl}{4-[2-(4-morpholinyl)ethyl]-1-piperazinyl}methanone] | 12
COc1ccccc1-c1ccc(C(=O)N2Cc3ccc(C(=O)N4CCN(CCN5CCOCC5)CC4)n3Cc3ccccc32)cc1OC [Example 214, {10-[(2,2′-Dimethoxy[1,1′-biphenyl]-4-yl)carbonyl]-10,11-dihydro-5H-pyrrolo[2,1-c][1,4]benzodiazepin-3-yl}{4-[2-(4-morpholinyl)ethyl]-1-piperazinyl}methanone] | 8
O=C(c1ccc2n1Cc1ccccc1N(C(=O)c1ccc(-c3cccc4ccccc34)cc1Cl)C2)N1CCN(CCN2CCOCC2)CC1 [Example 215, {10-[2-Chloro-4-(1-naphthyl)benzoyl]-10,11-dihydro-5H-pyrrolo[2,1-c][1,4]benzodiazepin-3-yl}{4-[2-(4-morpholinyl)ethyl]-1-piperazinyl}methanone] | 5
Cc1cc(C(=O)N2Cc3ccc(C(=O)N4CCN(CCN5CCOCC5)CC4)n3Cc3ccccc32)ccc1-c1ccccc1C(F)(F)F [Example 216, (10-{[2-Methyl-2′-(trifluoromethyl)[1,1′-biphenyl]-4-yl]carbonyl}-10,11-dihydro-5H -pyrrolo[2,1-c][1,4]benzodiazepin-3-yl){4-[2-(4-morpholinyl)ethyl]-1-piperazinyl}methanone] | 10
COc1cc(-c2ccccc2C)c(Cl)cc1C(=O)N1Cc2ccc(C(=O)N3CCN(CCN4CCOCC4)CC3)n2Cc2ccccc21 [Example 217, {10-[(6-Chloro-3-methoxy-2′-methyl[1,1′-biphenyl]-4-yl)carbonyl]-10,11-dihydro-5H -pyrrolo[2,1-c][1,4]benzodiazepin-3-yl}{4-[2-(4-morpholinyl)ethyl]-1-piperazinyl}methanone] | 21
Cc1ccccc1-c1ccc(C(=O)N2Cc3ccc(C(=O)N4CCN(CCN5CCOCC5)CC4)n3Cc3ccccc32)cc1C [Example 218, {10-[(2,2′-Dimethyl[1,1′-biphenyl]-4-yl)carbonyl]-10,11-dihydro-5H-pyrrolo[2,1-c][1,4]benzodiazepin-3-yl}{4-[2-(4-morpholinyl)ethyl]-1-piperazinyl}methanone] | 45
C=CCN1CCN(C(=O)c2ccc3n2Cc2ccccc2N(C(=O)c2ccc(-c4ccccc4OC)c(C)c2)C3)CC1 [Example 222, (4-Allyl-1-piperazinyl){10-[(2′-methoxy-2-methyl[1,1′-biphenyl]-4-yl)carbonyl]-10,11-dihydro-5H-pyrrolo[2,1-c][1,4]benzodiazepin-3-yl}methanone] | 15
C=CCN1CCN(C(=O)c2ccc3n2Cc2ccccc2N(C(=O)c2ccc(-c4cccc(OC)c4)c(C)c2)C3)CC1 [Example 223, (4-Allyl-1-piperazinyl){10-[(3′-methoxy-2-methyl[1,1′-biphenyl]-4-yl)carbonyl]-10,11-dihydro-5H-pyrrolo[2,1-c][1,4]benzodiazepin-3-yl}methanone] | 12
C=CCN1CCN(C(=O)c2ccc3n2Cc2ccccc2N(C(=O)c2ccc(-c4ccccc4C)cc2)C3)CC1 [Example 224, (4-Allyl-1-piperazinyl){10-[(2′-methyl[1,1′-biphenyl]-4-yl)carbonyl]-10,11-dihydro-5H -pyrrolo[2,1-c][1,4]benzodiazepin-3-yl}methanone] | 1
C=CCN1CCN(C(=O)c2ccc3n2Cc2ccccc2N(C(=O)c2ccc(-c4ccccc4C)c(OC)c2)C3)CC1 [Example 225, (4-Allyl-1-piperazinyl){10-[(2-methoxy-2′-methyl[1,1′-biphenyl]-4-yl)carbonyl]-10,11-dihydro-5H-pyrrolo[2,1-c][1,4]benzodiazepin-3-yl}methanone] | 35
C=CCN1CCN(C(=O)c2ccc3n2Cc2ccccc2N(C(=O)c2cc(Cl)c(-c4cccc(OC)c4)cc2OC)C3)CC1 [Example 226, (4-Allyl-1-piperazinyl){10-[(6-chloro-3,3′-dimethoxy[1,1′-biphenyl]-4-yl)carbonyl]-10,11-dihydro-5H-pyrrolo[2,1-c][1,4]benzodiazepin-3-yl}methanone] | 3
C=CCN1CCN(C(=O)c2ccc3n2Cc2ccccc2N(C(=O)c2ccc(-c4ccccc4OC)c(OC)c2)C3)CC1 [Example 227, (4-Allyl-1-piperazinyl){10-[(2,2′-dimethoxy[1,1′-biphenyl]-4-yl)carbonyl]-10,11-dihydro-5H -pyrrolo[2,1-c][1,4]benzodiazepin-3-yl}methanone] | 2
C=CCN1CCN(C(=O)c2ccc3n2Cc2ccccc2N(C(=O)c2ccc(-c4cccc(OC)c4)c(OC)c2)C3)CC1 [Example 228, (4-Allyl-1-piperazinyl){10-[(2,3′-dimethoxy[1,1′-biphenyl]-4-yl)carbonyl]-10,11-dihydro-5H -pyrrolo[2,1-c][1,4]benzodiazepin-3-yl}methanone] | 22
C=CCN1CCN(C(=O)c2ccc3n2Cc2ccccc2N(C(=O)c2ccc(-c4cccc5ccccc45)cc2Cl)C3)CC1 [Example 229, (4-Allyl-1-piperazinyl){10-[2-chloro-4-(1-naphthyl)benzoyl]-10,11-dihydro-5H-pyrrolo[2,1-c][1,4]benzodiazepin-3-yl}methanone] | 8
C=CCN1CCN(C(=O)c2ccc3n2Cc2ccccc2N(C(=O)c2ccc(-c4ccccc4C(F)(F)F)c(C)c2)C3)CC1 [Example 230, (4-Allyl-1-piperazinyl)(10-{[2-methyl-2′-(trifluoromethyl)[1,1′-biphenyl]-4-yl]carbonyl}-10,11-dihydro-5H-pyrrolo[2,1-c][1,4]benzodiazepin-3-yl)methanone] | 3
C=CCN1CCN(C(=O)c2ccc3n2Cc2ccccc2N(C(=O)c2ccc(-c4cccc5ccccc45)c(OC)c2)C3)CC1 [Example 231, (4-Allyl-1-piperazinyl){10-[3-methoxy-4-(1-naphthyl)benzoyl]-10,11-dihydro-5H -pyrrolo[2,1-c][1,4]benzodiazepin-3-yl}methanone] | 7
COc1ccccc1-c1ccc(C(=O)N2Cc3ccc(C(=O)N4CCN(C(C)C)CC4)n3Cc3ccccc32)cc1C [Example 232, (4-Isopropyl-1-piperazinyl){10-[(2′-methoxy-2-methyl[1,1′-biphenyl]-4-yl)carbonyl]-10,11-dihydro-5H-pyrrolo[2,1-c][1,4]benzodiazepin-3-yl}methanone] | 13
